Values quoted from earlier work as cited in patent publication US8198326B2, “Phenolic antiseptic compositions and methods of use” (3M Innovative Properties Company, priority 2004, dated 2012).

System: methicillin resistant staphylococcus aureus
Settings: reaction of free iodine with the organic load

In the case of povidone-iodine, the “decrease of activity on addition of nasal secretions” value is listed as 80-90%.
